Activity data for 34 compounds are collected here from ChEMBL document CHEMBL3132826, “Investigation of a tetrahydroisoquinoline scaffold as dual-action steroid sulfatase inhibitors generated by parallel solid-phase synthesis” (Medchemcomm, 2013).

What all share (assay type): ADME, cell-based
Data set [1] relates to MCF7. The data set is described as follows: Estrogenic activity in human MCF7 cells assessed as cell proliferation at 0.1 uM by MTS assay relative to basal level. To be noted: mcf7, 0.1 µM.
Data set [2] in a line: Estrogenic activity in human Saos2 cells assessed as cell proliferation at 1 uM. As to conditions: saos-2, 1 µM.
Data set [3] relates to MCF7. The data set is described as follows: Estrogenic activity in human MCF7 cells assessed as cell proliferation at 0.01 uM by MTS assay relative to basal level. To be noted: mcf7, 0.01 µM. (Tetrazolium dyes change colour on reduction, which living cells bring about.)
A short description of data set [4]: Estrogenic activity in human Saos2 cells assessed as increase in alkaline phosphatase activity at 1 nM. To be noted: saos-2, 0.001 µM.
The subject of data set [5] is MCF7. The data set is described as follows: Estrogenic activity in human MCF7 cells assessed as cell proliferation at 1 uM by MTS assay relative to basal level. To be noted: mcf7, 1 µM.

For the compound `CCN(Cc1ccncc1)c1ccc(C(=O)N2CCc3ccc(O)cc3C2)cc1`, the Activity in the data set on MCF7 [1] is recorded as 0%; in data set [2], “Toxic”; with MCF7 [3], 0%; in data set [4], 133%; with MCF7 [5], 0%.
For `CCN(Cc1ccc(Br)cc1)c1cccc(C(=O)N2CCc3ccc(O)cc3C2)c1`, the Activity with MCF7 [1] was determined as 0%; in the data set with MCF7 [3], 0%; in the data set with MCF7 [5] it was 5.5%.
`CCN(Cc1cccnc1)c1ccc(C(=O)N2CCc3ccc(O)cc3C2)cc1`: the Activity is recorded as 2% in the data set on MCF7 [1]; “Toxic” in data set [2]; 0% in the data set with MCF7 [3]; 133% in data set [4]; 0% in the data set with MCF7 [5].
With `CCN(Cc1ccncc1)c1cccc(C(=O)N2CCc3ccc(O)cc3C2)c1`, the Activity in the data set with MCF7 [1] is 0%; in the data set on MCF7 [3] it was 6%; with MCF7 [5], 12.8%.
The matching figures for `O=C(c1cccc(N2CCc3ccccc3C2)c1)N1CCc2ccc(O)cc2C1`: 0%, 0% and 14.7%.
The matching figures for `CCN(Cc1cccc(Br)c1)c1ccc(C(=O)N2CCc3ccc(O)cc3C2)cc1`: 0%, 1.8% and 18.3%.
As for `CN(C)CCCN(Cc1ccccc1)c1ccc(C(=O)N2CCc3ccc(O)cc3C2)cc1`, the results for the Activity in the data set with MCF7 [1], with MCF7 [3] and in the data set on MCF7 [5] were 18.3%, 19.4% and 25.9%, respectively.
The matching figures for `CN(CCCN1CCCCC1)c1cccc(C(=O)N2CCc3ccc(O)cc3C2)c1`: 2.5%, 2.9% and 19%.
The matching figures for `CN(CCN1CCCCC1)c1ccc(C(=O)N2CCc3ccc(O)cc3C2)cc1`: 4.6%, 2.1% and 12.2%.
As for `CN(C)CCN(CCN(C)C)c1ccc(C(=O)N2CCc3ccc(O)cc3C2)cc1`, the values for the Activity in the data set with MCF7 [1], with MCF7 [3] and with MCF7 [5] were 0%, 0% and 4.5%, respectively.
With `CC(C)CCN(CCC(C)C)c1cccc(C(=O)N2CCc3ccc(O)cc3C2)c1`, the Activity with MCF7 [1] was found to be 0%; in the data set with MCF7 [3], 0%; in the data set on MCF7 [5] it was 10.6%.
`CN(C)CCN(Cc1ccccc1)c1cccc(C(=O)N2CCc3ccc(O)cc3C2)c1`: the Activity with MCF7 [1] stood at 7.4%; with MCF7 [3], 4.1%; in the data set with MCF7 [5] it was 30.5%.
The corresponding values for `CN(CCCN1CCCCC1)c1ccc(C(=O)N2CCc3ccc(O)cc3C2)cc1` are 0%, 0% and 0%.
For `O=C(c1ccc(N(Cc2ccccc2)Cc2ccco2)cc1)N1CCc2ccc(O)cc2C1`, the Activity with MCF7 [1] is 0%; in data set [2] it was “Toxic”; in the data set with MCF7 [3], 0%; in data set [4] it was 133%; in the data set with MCF7 [5], 7.7%.
Take `CC(C)CCN(CCC(C)C)c1ccc(C(=O)N2CCc3ccc(O)cc3C2)cc1`: the Activity in the data set on MCF7 [1] was 0%; in data set [2] it was “Toxic”; in the data set with MCF7 [3], 0%; in data set [4], 133%; in the data set with MCF7 [5], 0%.
On to `CN(C)CCCN(Cc1ccccc1)c1cccc(C(=O)N2CCc3ccc(O)cc3C2)c1`, for which the Activity with MCF7 [1] is on record as 0%; in the data set on MCF7 [3], 0%; in the data set with MCF7 [5] it was 5.4%.
For the compound `CCN(Cc1cccnc1)c1cccc(C(=O)N2CCc3ccc(O)cc3C2)c1`, the Activity with MCF7 [1], with MCF7 [3] and with MCF7 [5] was 0% each time.
In the case of `O=C(c1cccc(N(CCCO)Cc2ccccc2)c1)N1CCc2ccc(O)cc2C1`, the figures for the Activity with MCF7 [1], in the data set with MCF7 [3] and in the data set on MCF7 [5] were 14.2%, 0% and 94.2%, respectively.
Turning to `CCCN(Cc1ccccc1)c1ccc(C(=O)N2CCc3ccc(O)cc3C2)cc1`, the Activity with MCF7 [1] turned out to be 0%; in the data set with MCF7 [3] it was 0%; in the data set with MCF7 [5], 8.9%.
`CCN(Cc1ccc(Br)cc1)c1ccc(C(=O)N2CCc3ccc(O)cc3C2)cc1`: the Activity with MCF7 [1] was 10.6%; with MCF7 [3], 0%; with MCF7 [5], 76.7%.
Take `CC/C(=C(\c1ccccc1)c1ccc(OCCN(C)C)cc1)c1ccccc1` [TAMOXIFEN]: in data set [4], the Activity stood at 143%.
Consider `CCCN(Cc1ccccc1)c1cccc(C(=O)N2CCc3ccc(O)cc3C2)c1`, for which the Activity amounted to 0% in the data set on MCF7 [1], 1.6% in the data set on MCF7 [3] and 20.8% in the data set on MCF7 [5].
On to `CN(C)CCN(CCN(C)C)c1cccc(C(=O)N2CCc3ccc(O)cc3C2)c1`, for which the Activity in the data set on MCF7 [1] turned out to be 14.6%; with MCF7 [3] it was 0%; in the data set on MCF7 [5] it was 84.1%.
The corresponding values for `CCN(Cc1ccc(F)cc1)c1cccc(C(=O)N2CCc3ccc(O)cc3C2)c1` are 31.9%, 9.5% and 101.3%.
The matching figures for `O=C(c1cccc(N(Cc2ccccc2)Cc2ccco2)c1)N1CCc2ccc(O)cc2C1`: 63.3%, 44.9% and 80.7%.
As for `CCN(Cc1ccccn1)c1ccc(C(=O)N2CCc3ccc(O)cc3C2)cc1`, the Activity with MCF7 [1] is 0%; in data set [2] it was 140%; in the data set with MCF7 [3], 2.7%; in data set [4] it was 147%; in the data set with MCF7 [5] it was 84%.
For the compound `O=C(c1ccc(N(CCO)Cc2ccccc2)cc1)N1CCc2ccc(O)cc2C1`, the Activity in the data set with MCF7 [1] amounted to 14.8%; in the data set with MCF7 [3] it was 8.4%; in the data set on MCF7 [5], 34.6%.
Take `CCN(Cc1ccc(F)cc1)c1ccc(C(=O)N2CCc3ccc(O)cc3C2)cc1`: the Activity is listed as 0% in the data set with MCF7 [1]; “Toxic” in data set [2]; 0% with MCF7 [3]; 152% in data set [4]; 4.8% with MCF7 [5].
Take `CN(C)CCN(Cc1ccccc1)c1ccc(C(=O)N2CCc3ccc(O)cc3C2)cc1`: the Activity is reported as 6.3% in the data set with MCF7 [1], 9.6% with MCF7 [3] and 4.6% in the data set with MCF7 [5].
The corresponding values for `O=C(c1cccc(N(CCO)Cc2ccccc2)c1)N1CCc2ccc(O)cc2C1` are 3%, 0.5% and 12%.
In the case of `O=C(c1ccc(N(CCCO)Cc2ccccc2)cc1)N1CCc2ccc(O)cc2C1`, the Activity in the data set with MCF7 [1] worked out at 0%; in the data set on MCF7 [3], 0%; in the data set on MCF7 [5] it was 4%.
On to `CCN(Cc1ccccn1)c1cccc(C(=O)N2CCc3ccc(O)cc3C2)c1`, for which the Activity in the data set on MCF7 [1] is reported as 58.4%; in the data set on MCF7 [3], 10.6%; in the data set on MCF7 [5], 87.3%.
Consider `CN(CCN1CCCCC1)c1cccc(C(=O)N2CCc3ccc(O)cc3C2)c1`, for which the results for the Activity in the data set with MCF7 [1], in the data set with MCF7 [3] and with MCF7 [5] were 0%, 0% and 5.3%, respectively.
Consider `CCN(Cc1cccc(Br)c1)c1cccc(C(=O)N2CCc3ccc(O)cc3C2)c1`, for which the Activity in the data set on MCF7 [1] came to 0%; in the data set on MCF7 [3] it was 0%; in the data set on MCF7 [5], 8.5%.
